# Experimental data from patent EP4620957A1, “IMIDAZO[4,5-B]PYRIDIN-7-AMINE COMPOUNDS BINDING AURORA KINASE A AND USES THEREOF” (Eberhard Karls Universität Tübingen, priority 2024, dated 2025).
# Columns and labels:
# AURKA = molecular target: T1, AURKA (Mus musculus, UniProt P97477); test: Cellular Thermal Shift Assay (CETSA) in NMP53-/- cells; format: cell-based, murine; settings: 43.7- 47.9 °C
# T1 construct: endogenous in cells; host or cells: NMP53-/- murine hepatocellular carcinoma cells
# T1 sequence (P97477 1-395): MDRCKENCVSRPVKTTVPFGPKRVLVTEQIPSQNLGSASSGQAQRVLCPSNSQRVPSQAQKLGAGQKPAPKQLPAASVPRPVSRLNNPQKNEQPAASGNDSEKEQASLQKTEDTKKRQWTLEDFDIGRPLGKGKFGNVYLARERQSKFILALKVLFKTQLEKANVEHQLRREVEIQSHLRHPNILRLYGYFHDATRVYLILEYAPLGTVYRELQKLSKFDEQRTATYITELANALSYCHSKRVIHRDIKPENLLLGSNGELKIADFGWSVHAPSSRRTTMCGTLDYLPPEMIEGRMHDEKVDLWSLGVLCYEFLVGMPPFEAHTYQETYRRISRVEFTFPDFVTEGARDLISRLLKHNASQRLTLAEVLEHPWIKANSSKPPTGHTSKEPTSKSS
# TPX2 = test: as above; format: cell-based, murine; settings: 43.7- 47.9 °C
# [1] = tested on: BNL CL.2 (non-transformed murine embryonic liver cell line); test: XTT cell viability assay (growth curves / growth inhibition); format: cell-based; settings: BNL CL.2 cells; at the IC95 concentration of EXAMPLE 3 against NMP53-/- cells; 48h
# Method: (§1) In brief, cells were seeded in 6-well plates on day 1. On day 2, cells were treated with either EXAMPLE 3 (AURKA Ligand) or with DMSO (control). After 5 days, wells were washed and cells were fixed with 4% PFA and then stained with Crystal Violet solution. Plates were scanned and pictures were saved. (B) Crystal violet colony formation assay of NMP19-/- or NMP53 murine hepatocellular carcinoma cells. In brief, cells were seeded in 6-well plates on day 1. On day 2, cells were treated with MLN8237 (AURKA inhibitor) or with DMSO (control). After 5 days, wells were washed and cells were fixed with 4% PFA and then stained with Crystal Violet solution. Plates were scanned and pictures were saved. (C) AURKA kinase assay with the AURKA ligand EXAMPLE 3. The AURKA kinase assay was performed by Reaction Biology Corp. and it is based on radiometric ATP quantification. Compounds were received as 10 mM stock. […] Afterwards, an XTT cell viability assay was performed, based on the quantification of metabolic activity of alive cells. […] Finally, slides were mounted and analyzed in a fluorescent microscope. Bar graphs represent quantification of abnormal/normal spindles levels of (B) NMP53^-/- and (C) NMP19^-/- mitotic cells at time points after treatment with 15 nM of EXAMPLE 3. […] Subsequently, they were analyzed in a Flow Cytometry device for quantification of the amount of PI in each cell. […]
# NMP19-/- = test: as above; format: cell-based, murine; settings: NMP19-/- cells; at the IC95 concentration of EXAMPLE 3 against NMP53-/- cells; 48h
# Method: as §1
smiles,measurement,setting,value
"Cn1cc(-c2ccc(CNc3ccnc4[nH]c(CCc5ccco5)nc34)cc2)cn1 [Example 3, 2-(2-(furan-2-yl)ethyl)-N-(4-(1-methyl-1H-pyrazol-4-yl)benzyl)-3H-imidazo[4,5-b]pyridin-7-amine]",thermal stabilization of AURKA (SDS-Page of soluble fraction),AURKA,stabilized
same,thermal stabilization of TPX2 (SDS-Page of soluble fraction),TPX2,stabilized
same,growth inhibition in percentage,[1],no significant growth inhibition
same,growth inhibition in percentage,NMP19-/-,no significant growth inhibition
